Values of other authors in PMC11643494, “Structure–Activity Relationship Studies in a Series of 2-Aryloxy-N-(pyrimidin-5-yl)acetamide Inhibitors of SLACK Potassium Channels” (Molecules, 2024).
Where two headings read alike, the source gives them in different places.

Assays:
hERG [1] = test system: hERG; parameters: method as in PMID 38782404; details: cited from earlier work
KV7.2 = test system: KV7.2; parameters: method as in PMID 38782404; details: cited from earlier work
WT SLICK = test system: WT SLICK; parameters: method as in PMID 38782404; details: read-out: IC50 versus WT SLICK; cited from earlier work
[2] = parameters: method as in PMID 38782404; details: cited from earlier work
WT SLACK [3] = test system: WT SLACK; parameters: method as in PMID 38782404; details: patch clamp; read-out: IC50 versus WT SLACK; cited from earlier work
G288S SLACK [4] = test system: G288S SLACK; parameters: method as in PMID 38782404; details: read-out: IC50 versus G288S SLACK; cited from earlier work
A934T SLACK [5] = test system: A934T SLACK; parameters: method as in PMID 38782404; details: read-out: IC50 versus A934T SLACK; cited from earlier work
[6] = parameters: method as in PMID 38782404; details: human liver microsomes; cited from earlier work
SLACK mutant F364L = test system: SLACK mutant F364L; parameters: method as in PMID 33859800; details: APC; read-out: IC50 versus SLACK mutant F364L; cited from earlier work
Kcnt1^L/L mice = test system: Kcnt1^L/L mice; parameters: method as in PMID 33859800; details: cited from earlier work
human WT SLACK = test system: human WT SLACK; parameters: method as in PMID 33859800; details: APC; read-out: IC50 versus human WT SLACK; cited from earlier work
SLACK mutant G288S = test system: SLACK mutant G288S; parameters: method as in PMID 33859800; details: APC; read-out: IC50 versus SLACK mutant G288S; cited from earlier work
[7] = parameters: method as in PMID 33859800; details: mice; cited from earlier work
G288S SLACK [8] = test system: G288S SLACK; parameters: method as in PMID 38893312; details: whole-cell APC; read-out: IC50 versus G288S SLACK; cited from earlier work
A934T SLACK [9] = details: whole-cell APC; read-out: IC50 versus A934T SLACK; cited from earlier work
WT SLACK [10] = details: whole-cell patch clamp electrophysiology; read-out: IC50 versus WT SLACK; cited from earlier work
[11] = test system: co-cultured cortical neurons and glial cells; parameters: method as in PMID 33143429; details: cited from earlier work
hERG [12] = details: Tl+-flux; cited from earlier work

O=S(=O)(Nc1ccc2c(c1)CCN2Cc1ccc(C(F)(F)F)cc1C(F)(F)F)C1CCCCC1 [Compound 9]
activity on hERG channels, result in words (hERG [1]): no activity | activity on KV7.2 channels, result in words (KV7.2): no activity | IC50 (WT SLICK): 1300 nM | plasma protein binding, result in words [2]: highly bound to plasma proteins | IC50 (WT SLACK [3]): 200 nM | IC50 (G288S SLACK [4]): 300 nM | IC50 (A934T SLACK [5]): 280 nM | metabolic stability (clearance), result in words [6]: low clearance compound

C[C@H](NC(=O)c1cc(C(F)(F)F)nn1C)c1nc(-c2ccnc(C(F)(F)F)c2)no1 [Compound 4]
IC50 (SLACK mutant F364L): 1800 nM | anticonvulsant effects (Kcnt1^L/L mice): anticonvulsant effects were observed | IC50 (human WT SLACK): […] | IC50 (SLACK mutant G288S): 220 nM | bioavailability [7]: complete bioavailability | clearance [7]: 2.0 mL/min/kg

CCCCN(Cc1ccc(F)cc1)c1nc2c(c(=O)n(Cc3cccc(OC)c3)c(=O)n2C)n1C [Compound 8]
IC50 (G288S SLACK [8]): 710 nM | IC50 (A934T SLACK [9]): 590 nM | IC50 (WT SLACK [10]): 700 nM

COc1ccc(Cl)cc1NC(=O)CN1CCN(S(=O)(=O)N2CCC(C)CC2)CC1 [Compound 6]
frequency of calcium (Ca2+) oscillations, result in words [11]: inhibiting the frequency of calcium (Ca^2+) oscillations | IC50 (hERG [12]): > 10 µM | IC50 (WT SLACK [10]): 1700 nM
